Experimental data taken from the supplement of paper PMC6045584.
± gives the standard deviation of the averaged measurements.

Legend:
CABOZANTINIB [1] = compound: T1, COc1cc2nccc(Oc3ccc(NC(=O)C4(C(=O)Nc5ccc(F)cc5)CC4)cc3)c2cc1OC [CABOZANTINIB]; experiment: surviving fraction relative to DMSO-only wells; higher = less growth inhibition; conditions: exposure time: 5 days
How it was run: (§1)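 Surviving fraction was calculated by normalising CellTiter-Glo luminescence to the median of DMSO-only wells. Tumour cell lines in log phase were seeded in 384-well plates at 250–500 cells per well, and 24 hours later were exposed continuously for five days to inhibitors at 0.5, 1, 5, 10, 50, 100, 500 and 1000 nM.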

VORINOSTAT [2] = compound: T2, O=C(CCCCCCC(=O)Nc1ccccc1)NO [VORINOSTAT]; experiment: as above; conditions: exposure time: 5 days
How it was run: as §1

CABOZANTINIB [3] = compound: T1, CABOZANTINIB; experiment: area under dose-response curve of surviving fraction (unscaled, Aref=0) (surviving fraction x log10(nM)); higher = more resistant; conditions: exposure time: 5 days; dose range 0.5-1000 nM
How it was run: (§2)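 Three screens per tumour cell line were run in 384-well plates at eight inhibitor concentrations from 0.5 to 1000 nM over five days. Surviving fractions, from CellTiter-Glo luminescence normalised to DMSO-only wells, were fitted with 3-parameter logistic curves in the drc R package. The reported area under the curve is the unscaled activity area. It spans log10 dose, and Aref is 0.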

[4] = compound: C[C@@H]1CN(CC(=O)Nc2ccc3c(c2)Cc2cccc(-c4cc(=O)cc(N5CCOCC5)o4)c2S3)C[C@H](C)O1; experiment: as above; conditions: exposure time: 5 days; dose range 0.5-1000 nM
How it was run: as §2

BMN-673 = compound: Cn1ncnc1[C@H]1c2n[nH]c(=O)c3cc(F)cc(c23)N[C@@H]1c1ccc(F)cc1 [BMN-673]; experiment: as above; conditions: exposure time: 5 days; dose range 0.5-1000 nM
How it was run: as §2

VORINOSTAT [5] = compound: T2, VORINOSTAT; experiment: as above; conditions: exposure time: 5 days; dose range 0.5-1000 nM
How it was run: as §2

| Test System | surviving fraction (CABOZANTINIB [1]; 0.5 nM) | surviving fraction (CABOZANTINIB [1]; 1 nM) | surviving fraction (CABOZANTINIB [1]; 5 nM) | surviving fraction (CABOZANTINIB [1]; 10 nM) | surviving fraction (CABOZANTINIB [1]; 50 nM) | surviving fraction (CABOZANTINIB [1]; 100 nM) | surviving fraction (CABOZANTINIB [1]; 500 nM) | surviving fraction (CABOZANTINIB [1]; 1000 nM) | surviving fraction (VORINOSTAT [2]; 0.5 nM) | surviving fraction (VORINOSTAT [2]; 1 nM) | surviving fraction (VORINOSTAT [2]; 5 nM) | surviving fraction (VORINOSTAT [2]; 10 nM) | surviving fraction (VORINOSTAT [2]; 50 nM) | surviving fraction (VORINOSTAT [2]; 100 nM) | surviving fraction (VORINOSTAT [2]; 500 nM) | surviving fraction (VORINOSTAT [2]; 1000 nM) | area under dose-response curve (CABOZANTINIB [3]) | area under dose-response curve [4] | area under dose-response curve (BMN-673) | area under dose-response curve (VORINOSTAT [5]) |
| --- | --- | --- | --- | --- | --- | --- | --- | --- | --- | --- | --- | --- | --- | --- | --- | --- | --- | --- | --- | --- |
| MHM BONE | 1.02 ± 0.045 | 1.01 ± 0.037 | 1.02 ± 0.026 | 1.04 ± 0.043 | 1.044 ± 0.0055 | 0.99 ± 0.021 | 0.896 ± 0.022 | 0.915 ± 0.019 | 0.928 ± 0.025 | 0.9847 ± 0.0087 | 1.01 ± 0.028 | 0.981 ± 0.019 | 1.03 ± 0.011 | 1 ± 0.019 | 0.985 ± 0.013 | 0.843 ± 0.025 | 3.23 | 3.5 | 3.2 | 3.28 |
| NCIH441 LUNG | 1.07 ± 0.042 | 1.02 ± 0.038 | 1.07 ± 0.036 | 0.963 ± 0.056 | 1.07 ± 0.028 | 1.06 ± 0.021 | 1.01 ± 0.031 | 0.845 ± 0.019 | 1.12 ± 0.041 | 1.02 ± 0.089 | 1.06 ± 0.033 | 1.04 ± 0.038 | 1.14 ± 0.02 | 0.959 ± 0.086 | 0.939 ± 0.024 | 0.546 ± 0.045 | 3.29 | 3.5 | 2.71 | 3.23 |
| NY BONE | 0.9253 ± 0.009 | 0.98 ± 0.036 | 1.02 ± 0.016 | 0.989 ± 0.024 | 0.9377 ± 0.0067 | 0.887 ± 0.011 | 0.784 ± 0.022 | 0.768 ± 0.026 | 0.9877 ± 0.004 | 0.918 ± 0.029 | 0.973 ± 0.023 | 0.98 ± 0.033 | 1.037 ± 0.0042 | 0.916 ± 0.019 | 0.701 ± 0.012 | 0.448 ± 0.016 | 3.07 | 3.49 | 2.86 | 3.06 |
| OS25HAL BONE | 0.957 ± 0.017 | 0.963 ± 0.02 | 1.02 ± 0.021 | 0.93 ± 0.022 | 0.941 ± 0.041 | 0.875 ± 0.029 | 0.8397 ± 0.0068 | 0.806 ± 0.068 | 0.987 ± 0.014 | 0.962 ± 0.015 | 0.991 ± 0.015 | 0.943 ± 0.033 | 1.046 ± 0.0047 | 1.03 ± 0.031 | 0.91 ± 0.011 | 0.498 ± 0.018 | 3.05 | 3.38 | 2.71 | 3.21 |
| OSHN BONE | 1.033 ± 0.005 | 1.024 ± 0.0035 | 1.03 ± 0.011 | 1.02 ± 0.0032 | 1.006 ± 0.0085 | 0.958 ± 0.02 | 0.928 ± 0.015 | 0.908 ± 0.027 | 1.05 ± 0.026 | 1.04 ± 0.019 | 1.05 ± 0.022 | 1.028 ± 0.0032 | 1.08 ± 0.042 | 1.08 ± 0.032 | 1.1 ± 0.022 | 0.903 ± 0.022 | 3.22 | 3.42 | 2.4 | 3.47 |
| PCI30 HEADNECK | 0.86 ± 0.039 | 0.864 ± 0.05 | 0.954 ± 0.066 | 1.07 ± 0.048 | 1 ± 0.019 | 1.03 ± 0.057 | 0.841 ± 0.036 | 0.84 ± 0.15 | 0.958 ± 0.064 | 0.982 ± 0.079 | 0.933 ± 0.087 | 1.01 ± 0.039 | 1.07 ± 0.053 | 0.962 ± 0.066 | 0.88 ± 0.064 | 0.735 ± 0.059 | 3.08 | 3.24 | 2.82 | 3.21 |
| SCC36 HEADNECK | 1.03 ± 0.092 | 0.961 ± 0.074 | 1.09 ± 0.066 | 1.02 ± 0.032 | 1.1 ± 0.09 | 1.07 ± 0.073 | 1.07 ± 0.11 | 0.88 ± 0.081 | 1.01 ± 0.084 | 0.977 ± 0.073 | 1.1 ± 0.024 | 1.06 ± 0.082 | 1.12 ± 0.1 | 1.14 ± 0.12 | 0.677 ± 0.038 | 0.589 ± 0.054 | 3.43 | 3.05 | 2.52 | 3.13 |
| SG32 HEADNECK | 1.06 ± 0.18 | 1 ± 0.17 | 0.922 ± 0.1 | 1.04 ± 0.29 | 0.901 ± 0.1 | 0.961 ± 0.13 | 0.968 ± 0.1 | 0.711 ± 0.05 | 0.938 ± 0.1 | 1.18 ± 0.35 | 1.18 ± 0.2 | 0.933 ± 0.053 | 1.03 ± 0.25 | 0.995 ± 0.21 | 0.697 ± 0.16 | 0.344 ± 0.068 | 3.26 | 3.15 | 3.1 | 3.07 |
| SIHA CERVIX | 0.857 ± 0.073 | 0.835 ± 0.051 | 0.979 ± 0.02 | 0.918 ± 0.017 | 0.988 ± 0.024 | 0.929 ± 0.038 | 0.737 ± 0.032 | 0.68 ± 0.033 | 0.978 ± 0.05 | 0.965 ± 0.018 | 1.07 ± 0.025 | 1.06 ± 0.13 | 1.2 ± 0.032 | 1.17 ± 0.13 | 1.15 ± 0.035 | 1 ± 0.14 | 3.04 | 3.5 | 2.87 | 3.58 |
| SJSA1 BONE | 1.47 ± 0.13 | 1.63 ± 0.045 | 1.56 ± 0.07 | 1.75 ± 0.071 | 1.627 ± 0.0032 | 1.74 ± 0.13 | 1.65 ± 0.059 | 1.78 ± 0.089 | 0.793 ± 0.037 | 0.946 ± 0.057 | 0.844 ± 0.049 | 0.953 ± 0.067 | 0.844 ± 0.021 | 0.973 ± 0.059 | 0.544 ± 0.035 | 0.672 ± 0.03 | 5.44 | 3.26 | 4.84 | 2.78 |
| SKBR3 BREAST | 1.02 ± 0.1 | 0.954 ± 0.11 | 1.07 ± 0.083 | 0.973 ± 0.011 | 1.12 ± 0.11 | 1.06 ± 0.098 | 0.987 ± 0.077 | 0.973 ± 0.025 | 1 ± 0.11 | 0.996 ± 0.15 | 0.85 ± 0.03 | 0.915 ± 0.17 | 0.98 ± 0.13 | 1.02 ± 0.15 | 0.433 ± 0.046 | 0.179 ± 0.046 | 3.38 | 3.21 | 2.55 | 3 |
| SNU475 LIVER | 1 ± 0.033 | 0.972 ± 0.049 | 0.987 ± 0.031 | 0.991 ± 0.053 | 1 ± 0.012 | 0.985 ± 0.048 | 0.923 ± 0.023 | 0.876 ± 0.021 | 0.9603 ± 0.0081 | 0.944 ± 0.021 | 0.966 ± 0.028 | 0.831 ± 0.037 | 0.968 ± 0.027 | 0.941 ± 0.026 | 0.817 ± 0.018 | 0.556 ± 0.024 | 3.24 | 3.13 | 2.83 | 3.12 |
| SUM44 BREAST | 1.21 ± 0.32 | 1.18 ± 0.3 | 1.24 ± 0.24 | 1.21 ± 0.23 | 1.36 ± 0.4 | 1.3 ± 0.35 | 1.2 ± 0.33 | 1.27 ± 0.39 | 0.934 ± 0.025 | 0.954 ± 0.037 | 0.951 ± 0.0099 | 1.01 ± 0.086 | 1.07 ± 0.016 | 0.917 ± 0.038 | 0.418 ± 0.031 | 0.294 ± 0.013 | 4.12 | 3.07 | 3.29 | 2.88 |
| SUM159 BREAST | 1.02 ± 0.03 | 1.02 ± 0.028 | 1.01 ± 0.026 | 1.01 ± 0.036 | 1 ± 0.025 | 1.01 ± 0.034 | 0.986 ± 0.036 | 0.977 ± 0.025 | 0.975 ± 0.087 | 0.932 ± 0.16 | 0.929 ± 0.16 | 0.928 ± 0.15 | 0.923 ± 0.24 | 0.882 ± 0.28 | 0.926 ± 0.17 | 0.77 ± 0.29 | 3.29 | 3.65 | 3.52 | 3.01 |
| SYO1 SYNOVIAL | 0.92 ± 0.027 | 0.938 ± 0.042 | 0.929 ± 0.037 | 0.859 ± 0.02 | 0.807 ± 0.022 | 0.818 ± 0.044 | 0.721 ± 0.041 | 0.694 ± 0.031 | 0.942 ± 0.068 | 0.895 ± 0.083 | 0.945 ± 0.055 | 0.836 ± 0.025 | 1.03 ± 0.088 | 1.057 ± 0.0096 | 0.563 ± 0.022 | 0.222 ± 0.012 | 2.68 | 3.18 | 0.997 | 3.02 |
